Experimental data reported in ChEMBL document CHEMBL3507680, “University of Dundee, Gates Library screen for HepG2 cell viability”.

Experiment: Human HepG2 cell viability assay in 384 well format
Assay type: toxicity, cell-based
Design: dose 125 nL, time 70.5 hour; concentration not given beside the values
Settings: HepG2 cells, read-out: Inhibition

SMILES | cytotoxicity at 70.5 h [%]
CN(C)C(=O)CN1CCC(c2cccc(Cc3ccc(F)cc3)n2)CC1 | 15.8
CCCC(=O)N1CCN(Cc2cc(-c3ccncc3)nn2C)CC1 | 0.205
CCC(CC)C(=O)N1CCN(Cc2cc(-c3ccncc3)nn2C)CC1 | 1.08
O=C(CC1CCCC1)N1CCOC(c2nc(-c3ncccn3)no2)C1 (stereo unspecified) | -1.63
Cc1noc2nc(C3CCCN(Cc4cccnc4)C3)cc(C(F)F)c12 (stereo unspecified) | -3.71
O=C(C1CCCC1)N1CCCC(c2nc(O)cc(-c3ccncc3)n2)C1 (stereo unspecified) | 5.93
CNC(=O)Nc1cnc2cc(Cl)ccc2c1O | 10
OC1(Cn2ccc3ncccc32)CCN(Cc2cccs2)CC1 | -0.455
Cc1cc(CN2CCC(O)(Cn3ccc4ncccc43)CC2)c(C)s1 | 4.82
Cc1ccc(=O)n(CC2(O)CCN(Cc3cnc(N(C)C)nc3)CC2)n1 | 17.6
O=C(c1ccncc1)N1CCCC(c2cc(C(F)F)n3ncnc3n2)C1 (stereo unspecified) | -3.18
O=C(c1ccccn1)N1CCCC(c2cc(C(F)F)n3ncnc3n2)C1 (stereo unspecified) | -4.56
CC1CCCN(Cc2c(C3CC3)[nH]c3ncccc23)C1 (stereo unspecified) | -4.53
Cc1cc(-c2cnc(NC3CCCC3)nc2-c2ccoc2)on1 | -2.38
Cc1ccc([C@]2(O)CC[C@H]3CN(Cc4ccncc4)C[C@H]32)nc1 | 36
Cc1ccc([C@]2(O)CC[C@H]3CN(Cc4cccnc4)C[C@H]32)nc1 | 9.25
O=C(c1ccco1)N1CCCC(c2cc(C(F)(F)F)n3ncnc3n2)C1 (stereo unspecified) | 28.3
c1cnc2[nH]c(C3CCCC3)c(CN3CCOCC3)c2c1 | -9.59
COc1ccc(C2CCCN2c2cnc3ccccc3n2)c(OC)c1 (stereo unspecified) | -4.21
COc1cccc(CCNC(=O)c2ccc(=O)n(C)c2)c1 | -2.94
N#Cc1cnc(NCc2cccc(C(=O)N3CCCC3)c2)c(Cl)c1 | -1.9
Cc1ccc(N2CCCN(C(=O)c3cc(CC(C)C)n[nH]3)CC2)nn1 | 12.9
COCCn1nc(C(=O)N2CCN(C)CC2C)ccc1=O (stereo unspecified) | -4.08
CC(=O)NC1CCN(C(=O)Nc2cccc(C(F)(F)F)c2)CC1 | 20.6

SMILES | cytotoxicity at 70.5 h [%]
Cc1ccc(C)c(Oc2ccc(CNC(=O)C3CNC(=O)N3)cn2)c1 (stereo unspecified) | -1.21
O=C(Nc1ccc(-c2csnn2)cc1)N1CC[C@H](O)C1 | -13.4
COc1cccc(-c2ccc(CNC(=O)c3ccc(=O)n(C)c3)cc2)c1 | 6.19
CNC(=O)NCCc1csc2ccccc12 | -0.00639
O=C(NCC1CCN(CCc2ccccc2)C1)NCC1(O)CCC1 (stereo unspecified) | -3.77
CCOc1cccc(CCNC(=O)NC2CCc3[nH]ncc3C2)n1 (stereo unspecified) | 24.3
CS(=O)(=O)c1cccc(Cl)c1C(=O)NCCN1C(=O)CCC1=O | 16.3
COc1ccncc1NC(=O)C1(c2ccccc2)CC1 | -8.43
CN(CCCOc1ccccc1)Cc1nccn1C | -4.56
Cc1nc(CNCc2ccc(N3CCC(CO)CC3)nc2)cs1 | -1.44
CC(=O)N1CCC(C(=O)N(CC(F)F)c2cccc(Cl)c2)CC1 | 0.334
NC(=O)C(NC(=O)CSCc1ccc(Cl)s1)c1ccccc1 (stereo unspecified) | -1.53
O=C(Nc1cccnc1)C1=Cc2ccccc2OC1 | 7.74
CCC(C)NC(=O)CS(=O)(=O)Cc1ccccc1Cl (stereo unspecified) | -7.35
CNC(=O)C1CCCCN1C(=O)c1csc(-c2ccc(C)cc2)n1 (stereo unspecified) | -9.54
COc1cccc(COC(C)C(=O)N(C)Cc2nnc3n2CCC3)c1 (stereo unspecified) | -3.46
CC(C)N(C)CCCNC(=O)c1cnn(C(C)C)c1C(F)(F)F | 13.9
O=S1(=O)CCC(c2nnc(-c3cnc4onc(C5CCCC5)c4c3)o2)C1 (stereo unspecified) | 20.9
COc1nc(N2CCNCC2)ncc1Br | -9.1
CNC(=O)Cc1noc(-c2cc3c(s2)CCCC3)n1 | -8.17
Cc1cccc2nc(CN3CCC(Cn4ccnn4)CC3)cc(=O)n12 | -3.54
CC(C)(C)C(=O)N1CCCN(c2ncnc3nc(N)ccc23)CC1 | -1.35
CC(C)OCCC1CCCCN1S(C)(=O)=O (stereo unspecified) | -8.81
CCN(CC)S(=O)(=O)NC(C)C(=O)N(C)C (stereo unspecified) | 0.169

SMILES | cytotoxicity at 70.5 h [%]
Fc1cccc(C(NCc2ncc[nH]2)c2ccccn2)c1 (stereo unspecified) | -6.19
Clc1cccc(C(NCc2ncc[nH]2)c2ccccn2)c1 (stereo unspecified) | 1.18
COc1ccc(CNC(=O)N2CCc3sccc3C2)cc1O | -10.2
O=C(Cn1nc(-c2ccc(F)cc2)oc1=O)NCC1CCCO1 (stereo unspecified) | -3.49
CN(CC(=O)N1CCCC1)C(=O)c1ccccc1F | -13.9
Cc1noc(CNc2cc3c(cc2Cl)OCCCO3)n1 | -14.8
CS(=O)(=O)NCCC(=O)Nc1ccccc1N1CCc2ccccc21 | -22.1
CCN(Cc1cc(Br)ccc1F)C(=O)C(C)NC(N)=O (stereo unspecified) | -19.1
Cc1nc(Cn2cnc3c(c(Br)nn3C)c2=O)cs1 | 11.6
Cc1nnc(CN(C)CCc2nc(-c3cccc(Cl)c3)no2)n1C | -13.1
N#CCCN(CC(=O)Nc1ccc(Br)cc1Cl)Cc1cccnc1 | -1.52
N#Cc1cc(F)ccc1NCC1CCN(S(=O)(=O)C(F)F)CC1 | -14.3
O=C(CCC(F)(F)F)NCC1CCCS1 (stereo unspecified) | -6.67
CC(NC(N)=O)C(=O)NCc1cc(Br)ccc1F (stereo unspecified) | -7.15
Cc1nc(NS(=O)(=O)c2ccc(F)c(Br)c2)no1 | -2.96
Cc1cc(F)cc(S(=O)(=O)Nc2noc(C)n2)c1 | -1.08
O=c1oc(-c2ccc(F)cc2)nn1CC1CCCCO1 (stereo unspecified) | -3.87
O=C(CN1CCCC(c2ncc[nH]2)C1)NCCCN1CCCCCC1=O (stereo unspecified) | -10.5
CCc1noc(CNc2cc3c(cc2Cl)OCCO3)n1 | 15.1
COC(=O)C1CCCN1C(=O)c1ccc(Br)cc1F (stereo unspecified) | 12.6
CCn1c(C)cc(C(=O)N2CCC(NC(=O)c3cc(C)no3)CC2)c1C | -112
O=C(CNc1cc(-n2cnnn2)ccc1F)Nc1ccccc1Cl | -114
Cc1ccccc1CC(=O)NS(=O)(=O)c1cccc2cnccc12 | -40.8
NC(=O)CCCNC(=O)Cc1csc(Cc2ccccn2)n1 | -135

SMILES | cytotoxicity at 70.5 h [%]
Cc1nc(-c2ccco2)ccc1C(=O)NCCC(=O)N1CCCCC1 | -103
Cc1nc(-c2ccco2)ccc1C(=O)NCCN1CCN(C)CC1 | -114
N#Cc1c(F)cccc1Nc1cnn(CC(N)=O)c1 | -112
COC(C)Cc1nc(-c2cnn3c(C)cc(C)nc23)no1 (stereo unspecified) | -97.5
Cc1cc(C)c(S(=O)(=O)Nc2cccc3c2OCCO3)cc1C(=O)O | -27.2
CCC(CC)NC(=O)c1nc2n(n1)-c1ccccc1S(=O)(=O)N2 | -82.7
Cc1ncc(C(=O)OCC2CCN(c3ccccc3)C2)s1 (stereo unspecified) | -126
Cn1cccc1C(=O)NC(C)(C(N)=O)c1cccc(Cl)c1 (stereo unspecified) | -98.6
N#Cc1c(F)cccc1Nc1cnn(CC(O)CN2CCOCC2)c1 (stereo unspecified) | -102
NC(=O)C1CCN(c2ccc3cc(Br)ccc3n2)C1 (stereo unspecified) | -89.2
CCN(CC)C(=O)CCc1nc(-c2cnn3c(C)cc(C)nc23)no1 | -121
CNS(=O)(=O)CC(=O)N1CCCc2cc(Br)ccc21 | -88.8
N#Cc1c(Cl)nsc1NCc1cccnc1OC1CCCC1 | -94.1
O=C(OCC1CCCN(C(=O)c2ccccc2)C1)c1cscn1 (stereo unspecified) | -88.6
CN(Cc1cnn(C)c1)C(=O)CCS(=O)(=O)c1ccc2c(c1)OCCO2 | -112
CCOc1ccc(CNC(=O)N(C)CC(C)(C)O)cc1C | -60
CCn1nc(C)cc1C(=O)N1CCC(Nc2ccc(C)nn2)CC1 | -85.5
CN(Cc1cnn(C)c1)C(=O)CCc1ccc2c(c1)OCO2 | -58.4
CN(Cc1cc(Br)cn1C)C(=O)c1cscn1 | -0.963
CNS(=O)(=O)Cc1ccccc1CNc1ccc(C#N)cn1 | 22.4
COc1cc(CNC(=O)Nc2nnc(C(C)C)s2)ccc1O | -10.5
COc1cc(CNC(=O)Nc2nnc(C(F)(F)F)s2)ccc1O | 2.56
CNS(=O)(=O)Cc1ccc(CNc2ccc(C#N)cn2)cc1 | -6.5
Cc1nnc2n1CCN(C(=O)c1cnc3c(cnn3C(C)C)c1)C2 | 25.5

SMILES | cytotoxicity at 70.5 h [%]
CCCN1CCCN(C(=O)Nc2ccc3c(c2)OCO3)CC1 | -7.91
Cc1nnc2n1CCN(C(=O)c1cnc3c(cnn3CC(C)C)c1)C2 | 25.8
CCCn1[nH]cc/c1=N\C(=O)CN1CCCC1c1cccn1C (stereo unspecified) | -2.18
O=C(NS(=O)(=O)Cc1cc(-c2ccccc2)no1)C1CCOCC1 | -1.22
CCOCC(=O)NC(C)Cc1ccccc1Br (stereo unspecified) | -4.95
CS(=O)(=O)CCC(=O)NC(c1ccc(F)cc1)C(F)(F)F (stereo unspecified) | -1.59
Cc1cc(S(=O)(=O)N2CC[C@@H](O)C2)c(Cl)cc1F | -6.21
COC(=O)NCCC(=O)NC(C)Cc1ccccc1Br (stereo unspecified) | -7.4
Cc1ccc(N(CCC#N)C(=O)CN2CCCC2c2cccs2)cc1 (stereo unspecified) | -2.42
CCCn1[nH]cc/c1=N\C(=O)CN1CCCC1Cn1cc(C)cn1 (stereo unspecified) | -4.99
CC(CS(C)(=O)=O)N(C(=O)Nc1cc(F)ccc1Cl)C1CC1 (stereo unspecified) | 2.35
CCc1ccc(CNC(=O)CCNc2ncccn2)s1 | -13.5
COCCN1CCN(Cc2c(C3CCNCC3)[nH]c3ncccc23)CC1 | -2.48
c1cnc2c(c1)cc([C@@H]1CCCO1)n2CCN1CCOCC1 | 0.0365
Cc1ccc(CNCc2ccc(N3CCC(CO)CC3)nc2)c(C)c1 | -5.56
Cc1ccc(CN(Cc2ncc[nH]2)C2CC(C)(C)NC(C)(C)C2)o1 | 9.13
Cc1ccc([C@]2(O)CC[C@H]3CN(Cc4cccc(F)c4F)C[C@H]32)nc1 | 5.11
Cc1ccc([C@]2(O)CC[C@H]3CN(Cc4ccccc4F)C[C@H]32)nc1 | -9.24
CC(C)C(N)C1=N/C(=C2\N=CN=N2)NO1 (stereo unspecified) | 5.13
CC(C)CC(N)C1=N/C(=C2\N=CN=N2)NO1 (stereo unspecified) | 29.4
